Ki data for 9 compounds are collected here from ChEMBL document CHEMBL1150297, “Beta-amino acid substitutions and structure-based CoMFA modeling of hepatitis C virus NS3 protease inhibitors” (Bioorg Med Chem, 2008).

In general, Ki refers to a measure of affinity in units of concentration, obtained from inhibition or displacement.

The experiment can be described thus: Inhibition of HCV NS3 protease by fluorescence plate reader. Further details: species or system Hepacivirus hominis.
In the case of `COc1ccc2c(O[C@@H]3C[C@@H](C(=O)NC4(C(=O)NS(=O)(=O)c5ccccc5)CC4)N(C(=O)C[C@@H](NC(=O)OC(C)(C)C)C(C)C)C3)cc(-c3ccccc3)nc2c1`, the Ki came to 1200 nM.
The result for `COc1ccc2c(O[C@@H]3C[C@@H](C(=O)NC4(C(=O)O)CC4)N(C(=O)C[C@@H](NC(=O)OC(C)(C)C)C(C)C)C3)cc(-c3ccccc3)nc2c1` reads 17000 nM; that for `COc1ccc2c(O[C@@H]3C[C@@H](C(=O)NC4(C(=O)C(=O)O)CC4)N(C(=O)[C@@H](NC(=O)OC(C)(C)C)C(C)C)C3)cc(-c3ccccc3)nc2c1`, 1000 nM; that for `COc1ccc2c(O[C@@H]3C[C@@H](CC(=O)NC4(C(=O)O)CC4)N(C(=O)[C@@H](NC(=O)OC(C)(C)C)C(C)C)C3)cc(-c3ccccc3)nc2c1`, 61000 nM.
Regarding `COc1ccc2c(O[C@@H]3C[C@@H](C(=O)NC4(CC(=O)NS(=O)(=O)c5ccccc5)CC4)N(C(=O)[C@@H](NC(=O)OC(C)(C)C)C(C)C)C3)cc(-c3ccccc3)nc2c1`, the Ki worked out at 14000 nM.
The result for `COc1ccc2c(O[C@@H]3C[C@@H](C(=O)NC4(C(=O)NS(=O)(=O)c5ccccc5)CC4)N(C(=O)[C@@H](NC(=O)OC(C)(C)C)C(C)C)C3)cc(-c3ccccc3)nc2c1` reads 55 nM.
Compound `COc1ccc2c(O[C@@H]3C[C@@H](C(=O)NC4(CC(=O)O)CC4)N(C(=O)[C@@H](NC(=O)OC(C)(C)C)C(C)C)C3)cc(-c3ccccc3)nc2c1` gave a Ki of 18000 nM.
The result for `COc1ccc2c(O[C@@H]3C[C@@H](C(=O)NC4(C(=O)O)CC4)N(C(=O)[C@@H](NC(=O)OC(C)(C)C)C(C)C)C3)cc(-c3ccccc3)nc2c1` reads 320 nM; that for `COc1ccc2c(O[C@@H]3C[C@@H](CC(=O)NC4(C(=O)NS(=O)(=O)c5ccccc5)CC4)N(C(=O)[C@@H](NC(=O)OC(C)(C)C)C(C)C)C3)cc(-c3ccccc3)nc2c1`, 1800 nM.
